Patent publication US20190022039A1, “COMPOUND HAVING ENHANCING ACTIVITY FOR GLUCAGON-LIKE PEPTIDE-1 RECEPTOR ACTIONS” (AJINOMOTO CO., INC., priority 2016, published 2019)

Target: T1, human GLP-1R (Homo sapiens, UniProt P43220)
T1 construct: expressed in transfected cells; host or cells: PEAK RAPID-derived Gα15-trans48 LD stably expressing cells (PRG48), transiently transfected with Lipofectamine 2000
Experiment: GLP-1 receptor in vitro calcium assay (intracellular free calcium concentration change induced via GLP-1 receptor)
Assay type: cell-based
Conditions: for EC50: PRG48 cells transfected with human GLP-1R, compound added with 250 pM GLP-1, Ca2+ response ΔF/F, read-out: Ca EC50 value; for GLP-1 receptor action enhancing activity (vs BETP): intensity compared to BETP, activity of BETP as 1
Experimental: The supernatant was removed by centrifugation (1,200 rpm, 3 min), and the cells were suspended at 4×10^6 cells/mL in 5% FBS DMEM/Ham's F-12. 1.0 mL thereof was seeded in a 15 cm dish and cultured (37° C., 5% CO2) overnight. The next day, the medium of the cultured PRG48 cells was replaced with 5% FBS DMEM/Ham's F-12 medium (30 mL), human GLP-1R gene mixture solution (GLP-1R/pc.DNA3.1(+) 60 μg) prepared using 6.0 mL of Opti-MEM (invitrogen) and 120 μL of Lipofectamin 2000 (invitrogen) was slowly added to the cells, and cultured (37° C., 5% CO2) for 6 hr to introduce the gene. […] The cells were counted, suspended at 0.5×10^6 cells/mL in 5% FBS DMEM/Ham's F-12 medium, and seeded in each well of D-Lysine coat 96 well plate (BD Bioscience) at 7.0×10^4 cells. After static adhesion at room temperature for 1 hr, the cells were cultured overnight (37° C., 5% CO2). The medium in the Cultured 96 well was entirely discarded, 150 μL of intracellular calcium measurement staining solution Calcium assay kit Express (Molecular Device) diluted 80-fold with Assay buffer (20 mM HEPES, 146 mM NaCl, 1 mM MgSO4, 1.39 mM glucose, 1 mM CaCl2, 2.5 mM Probenecid, 0.05% Casein Enzymatic Hydrolysate) was added, and the mixture was stood at 37° C. for 30 min, and then at room temperature for 45 min to perform staining. After staining, 250 pM GLP-1 and the compound were added and Ca^2+ response was observed by using FDSSμCELL (Hamamatsu Photonics K.K.). Each evaluation compound was dissolved in DMSO, further diluted with Assay buffer and used.
For evaluation, the fluorescence values (Ex480:Em540) before and after addition were measured, and changes in the intracellular free calcium concentration produced via GLP-1R receptor by the addition were quantitatively examined. For the measurement and analysis of the fluorescence values, a soft (FDSS7000EX) attached to the FDSSμCELL was used, and ΔF/F value ((maximum fluorescence value after stimulation−minimum fluorescence value after stimulation)/fluorescence value before stimulation) was calculated. Using the obtained ΔF/F values, EC50 value was calculated by Prism5.

T1 sequence (P43220 24-463): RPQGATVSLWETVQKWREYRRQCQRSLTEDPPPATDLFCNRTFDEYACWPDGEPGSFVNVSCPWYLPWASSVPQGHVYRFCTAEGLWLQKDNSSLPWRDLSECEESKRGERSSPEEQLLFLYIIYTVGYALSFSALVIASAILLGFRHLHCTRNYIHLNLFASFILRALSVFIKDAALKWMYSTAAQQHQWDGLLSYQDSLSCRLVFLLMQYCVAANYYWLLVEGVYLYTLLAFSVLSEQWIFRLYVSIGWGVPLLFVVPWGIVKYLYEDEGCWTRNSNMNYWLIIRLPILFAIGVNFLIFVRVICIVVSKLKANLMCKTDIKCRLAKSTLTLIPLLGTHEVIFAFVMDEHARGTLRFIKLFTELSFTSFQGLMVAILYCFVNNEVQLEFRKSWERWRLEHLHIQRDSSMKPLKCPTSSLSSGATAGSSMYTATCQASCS

SMILES | EC50 [nM] | GLP-1 receptor action enhancing activity (vs BETP)
CC(C)(C)OC(=O)[C@H](Cc1ccccc1)NC(=O)Nc1ccc(NS(=O)(=O)c2ccc(C(F)(F)F)cc2)cc1 [Compound 81] | 1000 | 24
CC(C)(C)c1ccc(S(=O)(=O)Nc2ccc(NC(=O)N[C@H](CC3CCCCC3)c3nc(C(C)(C)C)no3)cc2)cc1 [Compound 82] | 16 | 1606
CCCOc1ccc(-c2noc([C@H](CC3CCCCC3)NC(=O)Nc3ccc(NS(=O)(=O)c4ccc(C(C)(C)C)cc4)cc3)n2)cc1 [Compound 83] | 4.3 | 5794
CC(C)(C)c1ccc(S(=O)(=O)Nc2ccc(NC(=O)N[C@@H](CC3CCCCC3)c3nc(-c4ccc(OC(F)(F)F)cc4)no3)cc2)cc1 [Compound 84] | 3.4 | 7358
CCCCCCCN(C(=O)N[C@H](Cc1ccccc1)C(=O)OC(C)(C)C)c1ccc(NS(=O)(=O)c2ccc(C)cc2)cc1 [Compound 85, tert-butyl (2R)-2-({heptyl-[4-(p-tolylsulfonylamino)phenyl]carbamoyl}amino)-3-phenyl-propanoate] | 7 | 3578
Cc1ccc(S(=O)(=O)Nc2ccc(N(C)C(=O)N[C@H](Cc3ccccc3)C(=O)OC(C)(C)C)cc2)cc1 [Compound 86] | 430 | 58
Cc1ccc(S(=O)(=O)Nc2ccc(NC(=O)N[C@H](Cc3ccccc3)C(=O)OC(C)(C)C)cc2F)cc1 [Compound 87, tert-butyl (2R)-2-{[3-fluoro-4-(p-tolylsulfonylamino)phenyl]carbamoylamino}-3-phenyl-propanoate] | 1100 | 23
COc1cc(NC(=O)N[C@H](Cc2ccccc2)C(=O)OC(C)(C)C)ccc1NS(=O)(=O)c1ccc(C)cc1 [Compound 88] | 1300 | 20
Cc1ccc(S(=O)(=O)Nc2ccc(NC(=O)N[C@H](CC(C)C)C(=O)N[C@H](Cc3ccccc3)c3nc(C(C)(C)C)no3)cc2)cc1 [Compound 89] | 260 | 98
Cc1ccc(S(=O)(=O)Nc2ccc(NC(=O)N[C@H](Cc3ccccc3)c3nnc(S)n3-c3ccccc3)cc2)cc1 [Compound 90] | 1400 | 18
CSCCCNC(=O)[C@@H](CC1CCCCC1)NC(=O)Nc1ccc(NS(=O)(=O)c2ccc(C(C)(C)C)cc2)cc1 [Compound 91] | 56 | 446
CC(C)CCCC(C)NC(=O)[C@@H](CC1CCCCC1)NC(=O)Nc1cccc(NS(=O)(=O)c2ccc(C(C)(C)C)cc2)c1 (stereo partly drawn) [Compound 92] | 24 | 1028
CCCCCCNC(=O)[C@@H](CC1CCCCC1)NC(=O)Nc1cccc(NS(=O)(=O)c2ccc(C(C)(C)C)cc2)c1 [Compound 93] | 45 | 555
CC(C)CCCC(C)NC(=O)[C@@H](Cc1c[nH]c2ccccc12)NC(=O)Nc1cccc(NS(=O)(=O)c2ccc(C(C)(C)C)cc2)c1 (stereo partly drawn) [Compound 94] | 180 | 140
CCCCCCNC(=O)[C@@H](Cc1c[nH]c2ccccc12)NC(=O)Nc1cccc(NS(=O)(=O)c2ccc(C(C)(C)C)cc2)c1 [Compound 95] | 250 | 101
CSCCCN(c1ccc(NC(=O)N[C@H](CC2CCCCC2)C(=O)NC(C)CCCC(C)C)cc1)S(=O)(=O)c1ccc(C(C)(C)C)cc1 (stereo partly drawn) [Compound 97, (2R)-2-({4-[(4-tert-butylphenyl)sulfonyl-(3-methylsulfanylpropyl)amino]phenyl}carbamoylamino)-3-cyclohexyl-N-(1,5-dimethylhexyl)propanamide] | 63 | 399
CCCCC(CC)CNC(=O)[C@@H](Cc1c[nH]c2ccccc12)NC(=O)Nc1ccc(NS(=O)(=O)c2ccc(C(C)(C)C)cc2)cc1F (stereo partly drawn) [Compound 98, (2R)-2-[[4-[(4-tert-butylphenyl)sulfonylamino]-2-fluoro-phenyl]carbamoylamino]-N-(2-ethylhexyl)-3-(1H-indol-3-yl)propanamide] | 72 | 350

SMILES | EC50 [nM] | GLP-1 receptor action enhancing activity (vs BETP)
CC(C)(C)SCCCCCNC(=O)[C@@H](CC1CCCCC1)NC(=O)Nc1ccc(NS(=O)(=O)c2ccc(C(C)(C)C)cc2)cc1 [Compound 99] | 150 | 169
CCCCC(CC)CNC(=O)[C@@H](CC1CCCCC1)NC(=O)Nc1ccc(N2CCOCC2)c(NS(=O)(=O)c2ccc(C(C)(C)C)cc2)c1 (stereo partly drawn) [Compound 100, (2R)-2-({3-[(4-tert-butylphenyl)sulfonylamino]-4-morpholino-phenyl}carbamoylamino)-3-cyclohexyl-N-(2-ethylhexyl)propanamide] | 50 | 503
CCCCC(CC)CNC(=O)[C@@H](CC1CCCCC1)NC(=O)N(CC(=O)O)c1ccc(NS(=O)(=O)c2ccc(C(C)(C)C)cc2)cc1 (stereo partly drawn) [Compound 101] | 20 | 1272
CC(C)CCCC(C)NC(=O)[C@@H](Cc1cccnc1)NC(=O)Nc1ccc(NS(=O)(=O)c2ccc(C(C)(C)C)cc2)cc1 (stereo partly drawn) [Compound 102] | 130 | 193
CC(C)CCCC(C)NC(=O)[C@@H](Cc1cccnc1)NC(=O)Nc1cccc(NS(=O)(=O)c2ccc(C(C)(C)C)cc2)c1 (stereo partly drawn) [Compound 103] | 130 | 195
CC(C)CCCC(C)NC(=O)[C@@H](CC1CCCCC1)NC(=O)Nc1ccc(NS(=O)(=O)c2ccc(N3CCOCC3)nc2)cc1 (stereo partly drawn) [Compound 104, (2R)-3-cyclohexyl-N-(1,5-dimethylhexyl)-2-({4-[(6-morpholino-3-pyridyl)sulfonylamino]phenyl}carbamoylamino)propanamide] | 480 | 53
CCCCCCNc1ccc(S(=O)(=O)Nc2ccc(NC(=O)N[C@H](CC3CCCCC3)C(=O)NC(C)CCCC(C)C)cc2)cn1 (stereo partly drawn) [Compound 105] | 440 | 56
CC(C)CCCC(C)NC(=O)[C@@H](Cc1ccncc1)NC(=O)Nc1ccc(NS(=O)(=O)c2ccc(C(C)(C)C)cc2)cc1 (stereo partly drawn) [Compound 106] | 390 | 64
COCCCNC(=O)[C@@H](CC1CCCCC1)NC(=O)Nc1ccc(NS(=O)(=O)c2ccc(C(C)(C)C)cc2)cc1 [Compound 107] | 720 | 35
CC(C)CCCC(C)NC(=O)[C@@H](CC1CCCCC1)NC(=O)N(CC(=O)O)c1ccc(NS(=O)(=O)c2ccc(C(C)(C)C)cc2)cc1 (stereo partly drawn) [Compound 108, 2-(4-[(4-tert-butylphenyl)sulfonylamino]-N-{[(1R)-1-(cyclohexylmethyl)-2-(1,5-dimethylhexylamino)-2-oxo-ethyl]carbamoyl}anilino)acetic acid] | 1.5 | 17107
CCCCCCNc1ccc(S(=O)(=O)Nc2cccc(NC(=O)N[C@H](CC3CCCCC3)C(=O)NC(C)CCCC(C)C)c2)cn1 (stereo partly drawn) [Compound 109] | 11 | 2311
CCCCCCNc1ccc(S(=O)(=O)Nc2cccc(NC(=O)N[C@H](Cc3c[nH]c4ccccc34)C(=O)NC(C)CCCC(C)C)c2)cn1 (stereo partly drawn) [Compound 110] | 4.4 | 5731
CCCCC(CC)CNC(=O)[C@@H](CC1CCCCC1)NC(=O)Nc1ccc(N(CCCSC)S(=O)(=O)c2ccc(C(C)(C)C)cc2)cc1 (stereo partly drawn) [Compound 111] | 3.3 | 7694
CSCCCN(c1ccc(NC(=O)N[C@H](Cc2c[nH]c3ccccc23)C(=O)NC(C)CCCC(C)C)cc1)S(=O)(=O)c1ccc(C(C)(C)C)cc1 (stereo partly drawn) [Compound 112] | 11 | 2206
CCCCCCNc1ccc(S(=O)(=O)Nc2cccc(NC(=O)N[C@H](CC3CCCCC3)C(=O)NCCCSC)c2)cn1 [Compound 113] | 28 | 898
CCCCCCNc1ccc(S(=O)(=O)Nc2cccc(NC(=O)N[C@H](CC3CCCCC3)C(=O)NCC(CC)CCCC)c2)cn1 (stereo partly drawn) [Compound 114] | 30 | 850
